Data as given in US20240358846A1, “Nanoparticles and Peptides for the Delivery of Cargos to Muscle Cells” (4BASEBIO, S.L.U., priority 2021, published 2024).

How the values were obtained:
C2C12 cells [1] = test: GFP expression in C2C12 cells transfected with mRNA:lipid:peptide nanoparticles; assay type: cell-based, mouse; conditions: mRNA:lipid:peptide 1:5:2.5, DOTMA/DOPE 2:1 with 10% cholesterol, 500 ng/well, 4 h, FIG. 16
Procedure: Shown in FIG. 16 is GFP expression in C2C12 cells transfected with mRNA derived from linearised plasmid encapsulated in lipid-peptide nanoparticles.
(§1) Nanoparticles were formulated manually by pipetting following a mass ratios of 1:5:2.5 (mRNA:lipid:peptide). Firstly, the components mRNA, lipid and peptide were suspended in Ultra pure water in volumes of 60 ul, 60 ul and 80 ul, respectively. Components were mixed following the order-lipid to peptide, mRNA to lipid+peptide mix. Nanoparticles were allowed to incubate for 30 minutes at room temperature. All samples were diluted in serum-free media before transferring them onto cells. C2C12 cells were transfected with 500 ng/well of mRNA nanoparticles. The microplate was centrifuged at 12000 rpm for 5 minutes and incubated at 37 C for 4 hours. After 4 hours, cells were trypsinised and prepared for FAQs.

C2C12 cells [2] = test: GFP expression in C2C12 cells transfected with pDNA:lipid:peptide nanoparticles (flow cytometry, microscopy); assay type: cell-based, mouse; conditions: 48 h; for cells expressing GFP (GFP expression level, transfection efficiency): pDNA:lipid:peptide nanoparticles, different targeting sequences, FIG. 2; for cells expressing GFP (GFP expression level, transfection efficiency) / GFP transfection efficiency: DD 2:1 with 20% cholesterol; for GFP transfection efficiency: pDNA:lipid:peptide, MD2 in different conformations, FIG. 4
Procedure: C2C12 cells, an immortalised mouse myoblast line, were cultured in Dulbecco's Modified Eagle's Medium (DMEM, Gibco) containing 10% fetal bovine serum (FBS, Gibco) and 1% pen/strep (Gibco).
Transfections in C2C12 cells were performed with a range of peptide:liposome:nucleic acid cargo ratios. Transfections were performed in a 96-well plate at a density of 8,000 cells per well seeded 24 h previously. Charge and mass ratio of components in the transfection complex varied; DNA was maintained at a constant mass of 300 ng per well, while lipid component was altered. In one case, the molar ratio of the cationic lipid C18 to the phospholipid DOPE was kept at 1:1 (DD). In another case, the molar ratio of the cationic lipid C18 to the phospholipid DOPE was kept at 2:1 (DD 2:1), while cholesterol was added at a molar percentage of 10 or 20% of the total lipid content. The mass ratio of linear DNA:liposome:peptide was maintained at 1:3:3, while the muscle-cell binding peptides were in some cases altered.
Transfection complexes were formed via electrostatic interaction by vigorous pipetting, before diluting in a final volume of 200 μl per well, with a DNA concentration of 1.5 ng/μl. All dilutions were performed with OptiMEM reduced serum media. Controls included cells with no transfection complexes added (OptiMEM only).
Transfection complexes were incubated for 30 min at RT before adding to cells. All conditions were performed in triplicate. Cells were incubated at 37° C. for 4 hours, before replacing media with growth media. 48 h post-transfection, the cells were rinsed in PBS, before incubation in 0.05% Trypsin EDTA (Gibco) to detach the cells. Cells were then re-suspended in PBS for analysis by flow cytometry.

[3] = Size and PDI of miRNA-lipid-peptide complexes, hand-mixing vs microfluidics (DLS); assay type: physicochemical; conditions: FIG. 23; for size of complexes: C18/DOPE 2:1 with 10% cholesterol
Description: Shown in FIG. 23 is size and polydispersity index (PDI) of miDNA-lipid-peptide complexes formulated through two different methods: hand-mixing—where complexes are formed by vigorous pipetting using a micropipette; or through a microfluidics platform. The lipid components comprised of C18/DOPE at a molar ratio of 2:1 with 10% cholesterol. The final formulation was following a mass ratio of 1:5 closed linear DNA:liposomes with N/P ratio of 6 driven by the peptide C1L-N-16-K16GAAPWHLSSQYSRT (SEQ ID NO: 49).
The hand-mixed complexes were formed by firstly suspending each of the components in ultra pure water, with the following mixing order-liposomes to peptide, closed linear DNA to liposomes+peptide complexes. Nanoparticles were allowed to incubate for 30 minutes at room temperature prior to a further dilution in water required for biophysical charaterisation by a DLS system (Zetasizer Ultra-Malvern).
For complexes formed through a microfluidics device (Nanoassemblr Ignite-Precision Nanosystems), lipid components were suspended in 99% pure ethanol at identical ratios to hand-mixed particles. Lipid components in ethanol were loaded onto the instrument along with miRNA and peptide C1L, both suspended in water. A flow rate ratio (FRR) of 1:3 of miRNA to lipid was mixed together at a total flow rate (TFR) of 12 mL/min prior to the addition of the peptide (FRR of 1:1, TFR 12 mL/min). The complexes formulated using the Nanoassemblr we then dialysed for 4 h using a Slide-a-Lyzer dialysis cassette (ThermoFisher) to remove residual ethanol.

H9C2 cells = test: GFP expression in H9C2 cells transfected with nucleic acid-lipid-peptide nanoparticles (flow cytometry); assay type: cell-based, rat; conditions: 300 ng/well; for cells GFP positive (transfection efficiency): 48 h post-transfection; for GFP positive cells (transfection efficiency): mRNA in lipid-peptide nanoparticles, 4 h post transfection, FIG. 13
Procedure: H9C2 cells, an immortalised cell line derived from embryonic rate heart tissue were cultured in Dulbecco's Modified Eagle's Medium (DMEM, Gibco) containing 10% fetal bovine serum (FBS, Gibco) and 1% pen/strep (Gibco).
Transfections in H9C2 cells were performed with a range of peptide:liposome:nucleic acid cargo ratios. Transfections were performed in a 96-well plate at a density of 8,000 cells per well seeded 24 h previously. Closed linear DNA/mRNA was maintained at a constant mass of 300 ng per well, while peptide component was altered. The molar ratio of the cationic lipid C18 to the phospholipid DOPE was kept at 2:1 (DD 2:1), while cholesterol was added at a molar percentage of 10% of the total lipid content. The mass ratio of closed linear DNA/mRNA:liposome:peptide was maintained at 1:5:2.52.
Transfection complexes were formed via electrostatic interaction by vigorous pipetting, before diluting in a final volume of 200 ul per well, with a DNA concentration of 1.5 ng/ul. All dilutions were performed with OptiMEM reduced serum media. Controls included cells with no transfection complexes added (OptiMEM only), complexes targeting a different cell, or complexes with no targeting sequence component.
Transfection complexes were incubated for 30 min at RT before adding to cells. All conditions were performed in triplicate. Cells were incubated at 37° C. for 4 hours, before replacing media with growth media.
In the case of mRNA, 4 h post-transfection, the cells were rinsed in PBS, before incubation in 0.05% Trypsin EDTA (Gibco) to detach the cells. Cells were then resuspended in PBS for analysis by flow cytometry. In the case of closed linear DNA, 48 h post-transfection, the cells were rinsed in PBS, before incubation in 0.05% Trypsin EDTA (Gibco) to detach the cells. Cells were then resuspended in PBS for analysis by flow cytometry.

HEK293 cells [4] = test: GFP expression in HEK293 cells transfected with plasmid DNA-peptide complexes or DNA-lipid-peptide nanoparticles; assay type: cell-based; conditions: particles formed using DNA and peptide only, 48 h, FIG. 5
Procedure: GFP expression was imaged 48 h post transfection. n=3 in all experiments, error bars=S.D.
The high expression in C2C12 compared with HEK293 cells is particularly impressive owing to the high transfection efficiency achievable in HEK293 cells.

[5] = Biophysical characterisation of DNA-lipid-peptide nanoparticle (DLS, ELS, MADLS); assay type: physicochemical
Procedure: The size in nm by Dynamic Light Scattering (DLS), zeta potential in mV by Electrophoretic Light Scattering (ELS), and concentration of particles per ml by Multi-Angle Dynamic Light Scattering (MADLS) of the hpDNA-lipid-peptide nanoparticles was determined using the Zetasizer Ultra (Malvern). Complexes were prepared as before, except formulated in nuclease-free water rather than Opti-MEM. Samples containing 0.7 μg plasmid were diluted in 1 ml for analysis.

HEK293 cells [6] = test: In-vitro transfection efficiency in HEK293 cells of closed linear DNA nanoparticles stored at +4° C. (luciferase assay); assay type: cell-based; conditions: 300 ng closed linear DNA nanoparticles stored up to 40 weeks at +4° C., tested every 5 weeks, FIG. 22B
Procedure: Nanoparticles were transfected in HEK293 cells at 5 week intervals. GFP expression was measured 48 h post transfection. n=3 in all experiments.
Shown in FIG. 22B is relative luminescence units per microgram of protein (RLU/mg of protein) of HEK293 cells transfected with closed linear DNA nanoparticles stored for 40 weeks at +4° C. […] Cells were transfected with 300 ng of closed linear DNA nanoparticles every 5 weeks.

[7] = Size and polydispersity index of closed linear DNA-lipid-peptide nanoparticles by DLS (FIG. 15); assay type: physicochemical; conditions: C18/CHOL/DOPE (58/10/32)
Procedure: Dynamic Light Scattering (DLS) measurements were conducted using Zetasizer Ultra (Malvern Panalytical). Each bar represents average value of three measurements (n=3). Complexes were prepared as before, except formulated in nuclease-free water rather than Opti-MEM. Samples containing 0.7 μg closed linear DNA were diluted in 1 ml for analysis. Particles ranged from 37 nm (MD2L) to 57 nm (MD2CC), with PDI values ranging from 0.12 to 0.28. Liposomes encapsulating closed linear DNA with no targeting ligand were used as a control, with a larger size of 70 nm and PDI of 0.13.

C2C12 cells [8] = test: GFP expression in C2C12 cells transfected with closed linear DNA:lipid:peptide nanoparticles; assay type: cell-based, mouse; conditions: DOTMA/DOPE 2:1 with 10% cholesterol, 300 ng/well, 48 h, FIG. 20
Procedure: GFP expression was measured 48 h post transfection. n=3 in all experiments, error bars=S.D. Nanoparticles containing no peptide were used as a control. […] Nanoparticles containing no peptide in their formulation lead to a transfection efficiency of 12% indicating the lowest transfection efficiency in treated cells.
as §1, with “1:3:2.1.6 (closed linear DNA:lipid:peptide).” for “1:5:2.5 (mRNA:lipid:peptide).”, “closed linear DNA,” for “components mRNA,”, “closed linear DNA” for “mRNA”, “300” for “500”, “closed linear DNA.” for “mRNA nanoparticles.”, “Flow Cytometry analysis.” for “FAQs.”

[9] = Size and PDI of mRNA:lipid:peptide nanoparticles (FIG. 19); assay type: physicochemical; conditions: DOTMA/DOPE 2:1 with 10% cholesterol
Description: Table presented in FIG. 19 presents size (nm) and polydispersity index (PDI) values for the mRNA:lipid:peptide nanoparticles. Sizes of fully formed nanoparticles range from 31 nm for MD2, to 37 nm for MD3 while nanoparticles formulated without a peptide are 61 nm. PDI value is low across all samples which translates into low polydispersity of the nanoparticle population.

[10] = plasmid DNA-lipid-peptide nanoparticles, FIG. 10
[11] = closed linear DNA-lipid-peptide nanoparticles, FIG. 11

ASSLNIA [MD1]
cells expressing GFP (transfection efficiency) (C2C12 cells [1]): 73%
cells expressing GFP (GFP expression level, transfection efficiency) (C2C12 cells [2]; C2C12): 73%

KKKKKKKKKKKKKKKKGAAPWHLSSQYSRT [C1L-N-16]
size of complexes ([3]; hand-mixed): 60 nm
size of complexes ([3]; microfluidics): 40 nm
PDI ([3]; hand-mixed): 0.23
PDI ([3]; microfluidics): 0.16

KKKKKKKKKKKKKKKKGAASSLNIA [MD1L]
cells GFP positive (transfection efficiency) (H9C2 cells; [10]): 20%

KKKKKKKKKKKKKKKKGACRRQPPRSISSHPC [MD2C]
GFP expression visualised by microscopy (HEK293 cells [4]): No GFP expression
size of the particle (DLS) ([5]; DNA-lipid-peptide nanoparticle, C18 (DOTMA) DOPE 10% cholesterol, FIG. 6A): 89.4 nm
zeta potential (ELS) ([5]; DNA-lipid-peptide nanoparticle, C18 (DOTMA) DOPE 10% cholesterol, FIG. 6B): 24.8 mV
particle titre (MADLS) ([5]; accounting for the 1 in 100 dilution, FIG. 6E, F): 10 E12 particles per ml
GFP transfection efficiency (C2C12 cells [2]; C2C12): 30.08%
GFP expression visualised by microscopy (C2C12 cells [2]; C2C12, particles formed using DNA and peptide only, FIG. 5): some GFP expression
GFP expression, C2C12 compared to HEK293 cells (specificity) (C2C12 cells [2]; fully formed nanoparticle with lipid DD with 10% cholesterol, FIG. 5): much higher in C2C12 cells as compared to HEK293 cells
cells GFP positive (transfection efficiency) (H9C2 cells; [11]): 6%
cells GFP positive (transfection efficiency) (H9C2 cells; [10]): 26%

KKKKKKKKKKKKKKKKGARRQPPRSISSHP [MD2L]
transfection efficiency after storage (luminescence signal, luciferase assay) (HEK293 cells [6]): sustained luminescence signal across all time points
size (DLS) [7]: 37 nm
GFP transfection efficiency (C2C12 cells [2]; C2C12): 8.24%
GFP positive cells (transfection efficiency) (H9C2 cells): 33%
cells GFP positive (transfection efficiency) (H9C2 cells; [10]): 27%

KKKKKKKKKKKKKKKKGAWLSEAGPVVTVRALRGTGSW [C2L-N-16]
GFP positive cells (transfection efficiency) (H9C2 cells): 26%

KKKKKKKKKKKKKKKKKKKKKKKKKKKKKKGACRRQPPRSISSHPC [MD2C-K30, targeting peptide named MD2C-K30]
cells GFP positive (transfection efficiency) (H9C2 cells; [11]): 5%

KKKKKKKKKKKKKKKKRVRRGACASSLNIAC [MD1CC]
cells expressing GFP (transfection efficiency) (C2C12 cells [8]): 29%

KKKKKKKKKKKKKKKKRVRRGACRRQPPRSISSHPC [MD2CC]
size (DLS) [7]: 57 nm
GFP transfection efficiency (C2C12 cells [2]; C2C12): 50.06%

KKKKKKKKKKKKKKKKRVRRGACSKTFNTHPQSTPC [MD3CC]
cells expressing GFP (transfection efficiency) (C2C12 cells [8]): 25%

RRQPPRSISSHP [MD2]
cells expressing GFP (transfection efficiency) (C2C12 cells [1]): 59%
cells expressing GFP (GFP expression level, transfection efficiency) (C2C12 cells [2]; C2C12): 50.1%
size [9]: 31 nm

SKTFNTHPQSTP [MD3]
cells expressing GFP (transfection efficiency) (C2C12 cells [1]): 72%
cells expressing GFP (GFP expression level, transfection efficiency) (C2C12 cells [2]; C2C12): 22.68%
size [9]: 37 nm
